The values below come from US11629171B2, “Beta-hairpin peptidomimetics” (POLYPHOR AG, priority 2017, dated 2023).

Each structure is given as a SMILES string. In brackets after ≈: the same amount, converted by molar mass. Where a SMILES comes first, the peptide text is derived from it. Bridges are numbered along the chain shown (N, C = ends). Roman numbers before positions name the chains, in order. [ ]: non-standard residue; d: D form. Tle = CC(C)(C)[C@H](N)C(=O)O; dOrn = NCCC[C@@H](N)C(=O)O; dDab = NCC[C@@H](N)C(=O)O; hSer = N[C@@H](CCO)C(=O)O; Orn = NCCC[C@H](N)C(=O)O; Dab = NCC[C@H](N)C(=O)O; Dap = NC[C@H](N)C(=O)O

Assay type in all cases: cell-based
Series [1] relates to Pseudomonas aeruginosa ATCC 27853. The settings on record: ATCC 27853. In short, it runs like this: (§1)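 Two-fold peptide dilutions in polysorbate 80-containing (0.002% final) cation-adjusted Mueller-Hinton II broth were inoculated with about 10^6 CFU/mL. The MIC was taken as the lowest concentration, in μg/mL, preventing visible growth at 18-20 hours and 35° C.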
Series [2] deals with Acinetobacter baumannii DSM 30008. Conditions: DSM 30008. In short, it runs like this:
as §1

In series [3] the test system is Acinetobacter baumannii 872842. The settings on record: 872842. In short, it runs like this:
as §1

The test system of series [4] is Klebsiella pneumoniae 968733. Conditions: 968733. The procedure, abridged:
as §1

In series [5] the test system is Enterobacter cloacae 848840. Conditions: 848840. In short, it runs like this: as §1
The test system of series [6] is Escherichia coli 926415. Conditions: 926415. The procedure, abridged: as §1
Series [7] deals with Escherichia coli ATCC 25922. The settings on record: ATCC 25922. In short, it runs like this:
as §1

Series [8] deals with Klebsiella pneumoniae SSI #3010. The settings on record: SSI #3010. The procedure, abridged:
as §1

The subject of series [9] is human red blood cells (hRBC). Put plainly: Hemolysis. The settings on record: red cells of human, 1 h, 200. In short, it runs like this:
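hRBC washed 4× in PBS; 200 μg/mL peptide + 20% (v/v) hRBC, 1 h, 37° C, 300 rpm. Spin, supernatant ~7.5-fold diluted, OD540 blank corrected. % hemolysis = OD540 peptide / OD540 Triton X-100 × 100.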

Take `CC(=O)N[C@H](C(=O)N[C@H]1CCCNC(=O)[C@@H](C(C)C)NC(=O)[C@H](C(C)(C)C)NC(=O)[C@H](CO)NC(=O)[C@H](Cc2c[nH]c3ccccc23)NC(=O)[C@H](CCO)NC(=O)[C@@H](CCN)NC(=O)[C@H](CCC(=O)N[C@@H](CCN)C(=O)N[C@H](C(=O)N[C@@H](CN)C(=O)N[C@H]2CCNC(=O)[C@H]([C@@H](C)O)NC(=O)[C@H](CCN)NC(=O)[C@H](CCN)NC(=O)[C@H](CC(C)C)NC(=O)[C@@H](CC(C)C)NC(=O)[C@H](CCN)NC2=O)[C@@H](C)O)NC(=O)[C@H](CO)NC(=O)[C@H](Cc2ccc(O)cc2)NC1=O)C(C)C` [Ex. 27] (I: Ac-V[Orn]YSE[dDab][hSer]WS[Tle][dV] / II: [Dab]T[Dap][Dab][Dab][dL]L[Dab][Dab]T; lactam I:2-I:C, II:4-II:C; amide I:5-II:N): the minimal inhibitory concentration (MIC) in [1] was 0.5 µg/mL (≈ 0.216 µM); in series [2], 0.0625 µg/mL (≈ 0.027 µM); in series [3], 0.125 µg/mL (≈ 0.0539 µM); in series [4] it was 1 µg/mL (≈ 0.431 µM); in series [5], 0.25 µg/mL (≈ 0.108 µM); in [6], 1 µg/mL (≈ 0.431 µM). The values for the minimal inhibitory concentration (MIC) in series [7] and in series [8] were 0.0625 µg/mL (≈ 0.027 µM) and 0.25 µg/mL (≈ 0.108 µM), respectively. Further, the “Hemolysis at 200 μg/mL” value in series [9] is below 1%.

In the case of `CC(=O)N[C@H](C(=O)N[C@H]1CCCNC(=O)[C@@H](CCN)NC(=O)[C@H](C(C)(C)C)NC(=O)[C@H](CO)NC(=O)[C@H](Cc2c[nH]c3ccccc23)NC(=O)[C@H](CCO)NC(=O)[C@@H](CCN)NC(=O)[C@H](CCC(=O)N[C@@H](CCN)C(=O)N[C@H](C(=O)N[C@@H](CN)C(=O)N[C@H]2CCNC(=O)[C@H]([C@@H](C)O)NC(=O)[C@H](CCN)NC(=O)[C@H](CCN)NC(=O)[C@H](CC(C)C)NC(=O)[C@@H](CC(C)C)NC(=O)[C@H](CCN)NC2=O)[C@@H](C)O)NC(=O)[C@H](CO)NC(=O)[C@H](Cc2ccc(O)cc2)NC1=O)C(C)C` [Ex. 28] (I: Ac-V[Orn]YSE[dDab][hSer]WS[Tle][dDab] / II: [Dab]T[Dap][Dab][Dab][dL]L[Dab][Dab]T; lactam I:2-I:C, II:4-II:C; amide I:5-II:N), the MIC in series [1] amounted to 0.25 µg/mL (≈ 0.108 µM); in series [2], 0.125 µg/mL (≈ 0.0539 µM); in series [3] it was 4 µg/mL (≈ 1.72 µM); in [4] it was 8 µg/mL (≈ 3.45 µM); in [5] it was 0.125 µg/mL (≈ 0.0539 µM); in series [6], 8 µg/mL (≈ 3.45 µM). Besides, the MIC in series [7] and in series [8] was 0.125 µg/mL (≈ 0.0539 µM) throughout. Also, the “Hemolysis at 200 μg/mL” value in series [9] was below 1%.

As to `CC(=O)N[C@H](C(=O)N[C@H]1CCCNC(=O)[C@@H](CCCN)NC(=O)[C@H](C(C)(C)C)NC(=O)[C@H](CO)NC(=O)[C@H](Cc2c[nH]c3ccccc23)NC(=O)[C@H](CCO)NC(=O)[C@@H](CCN)NC(=O)[C@H](CCC(=O)N[C@@H](CCN)C(=O)N[C@H](C(=O)N[C@@H](CN)C(=O)N[C@H]2CCNC(=O)[C@H]([C@@H](C)O)NC(=O)[C@H](CCN)NC(=O)[C@H](CCN)NC(=O)[C@H](CC(C)C)NC(=O)[C@@H](CC(C)C)NC(=O)[C@H](CCN)NC2=O)[C@@H](C)O)NC(=O)[C@H](CO)NC(=O)[C@H](Cc2ccc(O)cc2)NC1=O)C(C)C` [Ex. 29] (I: Ac-V[Orn]YSE[dDab][hSer]WS[Tle][dOrn] / II: [Dab]T[Dap][Dab][Dab][dL]L[Dab][Dab]T; lactam I:2-I:C, II:4-II:C; amide I:5-II:N), the MIC in series [1] was 0.25 µg/mL (≈ 0.107 µM); in [2], 0.125 µg/mL (≈ 0.0536 µM); in [3] it was 1 µg/mL (≈ 0.428 µM); in series [4], 8 µg/mL (≈ 3.43 µM); in series [5] it was 0.0625 µg/mL (≈ 0.0268 µM); in series [6] it was 4 µg/mL (≈ 1.71 µM). The values for the minimum inhibitory concentration (MIC) in [7] and in [8] were 0.0625 µg/mL (≈ 0.0268 µM) and 0.125 µg/mL (≈ 0.0536 µM), respectively. For the same compound, in series [9], the “Hemolysis at 200 μg/mL” value was found to be 1%.

As for `CC(=O)N[C@H](C(=O)N[C@H]1CCCNC(=O)[C@@H]([C@H](C)O)NC(=O)[C@H](C(C)C)NC(=O)[C@H](CO)NC(=O)[C@H](Cc2c[nH]c3ccccc23)NC(=O)[C@H](CCO)NC(=O)[C@@H](CCN)NC(=O)[C@H](CCC(=O)N[C@@H](CCN)C(=O)N[C@H](C(=O)N[C@@H](CN)C(=O)N[C@H]2CCNC(=O)[C@H]([C@@H](C)O)NC(=O)[C@H](CCN)NC(=O)[C@H](CCN)NC(=O)[C@H](CC(C)C)NC(=O)[C@@H](CC(C)C)NC(=O)[C@H](CCN)NC2=O)[C@@H](C)O)NC(=O)[C@H](CCN)NC(=O)[C@H](Cc2ccc(O)cc2)NC1=O)C(C)C` [Ex. 31] (I: Ac-V[Orn]Y[Dab]E[dDab][hSer]WSV[dT] / II: [Dab]T[Dap][Dab][Dab][dL]L[Dab][Dab]T; lactam I:2-I:C, II:4-II:C; amide I:5-II:N), the MIC came to 0.25 µg/mL (≈ 0.108 µM) in [1]; 0.03125 µg/mL (≈ 0.0135 µM) in [2]; 0.125 µg/mL (≈ 0.0539 µM) in series [3]; 0.125 µg/mL (≈ 0.0539 µM) in series [4]; 0.125 µg/mL (≈ 0.0539 µM) in series [5]; 0.5 µg/mL (≈ 0.216 µM) in [6]. Besides, the minimum inhibitory concentration (MIC) in series [7] is 0.03125 µg/mL (≈ 0.0135 µM); in series [8] it was 0.0625 µg/mL (≈ 0.0269 µM). Besides, in series [9], the “Hemolysis at 200 μg/mL” value is given as below 1%.

On to `CC[C@H](C)[C@H](NC(C)=O)C(=O)N[C@H]1CCCNC(=O)[C@@H]([C@H](C)O)NC(=O)[C@H](C(C)(C)C)NC(=O)[C@H](CO)NC(=O)[C@H](Cc2c[nH]c3ccccc23)NC(=O)[C@H](CCO)NC(=O)[C@@H](CCN)NC(=O)[C@H](CCC(=O)N[C@@H](CCN)C(=O)N[C@H](C(=O)N[C@@H](CN)C(=O)N[C@H]2CCNC(=O)[C@H]([C@@H](C)O)NC(=O)[C@H](CCN)NC(=O)[C@H](CCN)NC(=O)[C@H](CC(C)C)NC(=O)[C@@H](CC(C)C)NC(=O)[C@H](CCN)NC2=O)[C@@H](C)O)NC(=O)[C@H](CN)NC(=O)[C@H](Cc2ccc(O)cc2)NC1=O` [Ex. 32] (I: Ac-I[Orn]Y[Dap]E[dDab][hSer]WS[Tle][dT] / II: [Dab]T[Dap][Dab][Dab][dL]L[Dab][Dab]T; lactam I:2-I:C, II:4-II:C; amide I:5-II:N), for which the MIC in [1] was 0.25 µg/mL (≈ 0.107 µM); in series [2], 0.0625 µg/mL (≈ 0.0268 µM); in [3], 0.0625 µg/mL (≈ 0.0268 µM); in series [4] it was 0.25 µg/mL (≈ 0.107 µM); in series [5] it was 0.125 µg/mL (≈ 0.0536 µM); in series [6], 0.0625 µg/mL (≈ 0.0268 µM). The minimum inhibitory concentration (MIC) in [7] was determined as 0.0625 µg/mL (≈ 0.0268 µM); in series [8], 0.125 µg/mL (≈ 0.0536 µM). Besides, the “Hemolysis at 200 μg/mL” value in series [9] is recorded as below 1%.

As for `CC(=O)N[C@@H](CC(C)C)C(=O)N[C@H]1CCCNC(=O)[C@@H]([C@H](C)O)NC(=O)[C@H](C(C)(C)C)NC(=O)[C@H](CO)NC(=O)[C@H](Cc2c[nH]c3ccccc23)NC(=O)[C@H](CCO)NC(=O)[C@@H](CCN)NC(=O)[C@H](CCC(=O)N[C@@H](CCN)C(=O)N[C@H](C(=O)N[C@@H](CN)C(=O)N[C@H]2CCNC(=O)[C@H]([C@@H](C)O)NC(=O)[C@H](CCN)NC(=O)[C@H](CCN)NC(=O)[C@H](CC(C)C)NC(=O)[C@@H](CC(C)C)NC(=O)[C@H](CCN)NC2=O)[C@@H](C)O)NC(=O)[C@H](CN)NC(=O)[C@H](Cc2ccc(O)cc2)NC1=O` [Ex. 33] (I: Ac-L[Orn]Y[Dap]E[dDab][hSer]WS[Tle][dT] / II: [Dab]T[Dap][Dab][Dab][dL]L[Dab][Dab]T; lactam I:2-I:C, II:4-II:C; amide I:5-II:N), the MIC was found to be 0.25 µg/mL (≈ 0.107 µM) in series [1]; 0.0625 µg/mL (≈ 0.0268 µM) in series [2]; 0.0625 µg/mL (≈ 0.0268 µM) in [3]; 0.25 µg/mL (≈ 0.107 µM) in [4]; 0.125 µg/mL (≈ 0.0536 µM) in series [5]; 0.125 µg/mL (≈ 0.0536 µM) in series [6]. Also, the MIC in series [7] is 0.0625 µg/mL (≈ 0.0268 µM); in series [8] it was 0.125 µg/mL (≈ 0.0536 µM). Moreover, in series [9], the “Hemolysis at 200 μg/mL” value is recorded as below 1%.

What is called MIC is the lowest concentration found to suppress growth. A high value points to a less susceptible organism.
